Reference: patent US20230278972A1, “SUBSTITUTED HALOALKYL SULFONANILIDE HERBICIDES” (FMC Corporation, priority 2020, published 2023)

Key:
Assay type in all cases: in vivo
[1] = test system: Pigweed, Palmer (palmer amaranth, palmer pigweed, Amaranthus palmeri); assay: Test A1 preemergence, Pigweed, Palmer; conditions: 125 g ai/ha, 0 to 100 scale (0 no effect, 100 complete control)
Outline: (§1)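 Both timings started from seed in a loam-sand blend. Preemergence pots got a directed soil application immediately; postemergence pots were sprayed when seedlings had one or two leaves and stood 2–10 cm. Each compound was prepared in a non-phytotoxic solvent plus surfactant.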

[2] = test system: Ryegrass, Italian (Italian ryegrass, Lolium multiflorum); assay: Test A1 preemergence, Ryegrass, Italian; conditions: 125 g ai/ha, 0 to 100 scale (0 no effect, 100 complete control)
Outline: as §1

soybean (Glycine max) [3] = assay: Test A1 preemergence, soybean; conditions: 125 g ai/ha, 0 to 100 scale (0 no effect, 100 complete control)
Outline: as §1

[4] = test system: wheat (Triticum aestivum); assay: Test A1 preemergence, wheat; conditions: 125 g ai/ha, 0 to 100 scale (0 no effect, 100 complete control)
Outline: as §1

soybean (Glycine max) [5] = assay: Test A1 postemergence, soybean; conditions: 0 to 100 scale (0 no effect, 100 complete control)
Outline: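 Plants grown in pots of loam/sand mix; preemergence = soil-directed spray on seeded pots, postemergence = spray at 1–2 leaves, height 2–10 cm; test chemicals formulated in non-phytotoxic solvent with surfactant.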

rice (Oryza sativa) = assay: Test B1 flooded paddy test, rice; conditions: 250 g ai/ha, Flood, applied to paddy water, 2-leaf stage, visually evaluated after 10 to 14 days
Description: A dash (-) response means no test result.

COc1cccc2c1C(=O)N(c1cc(N(COC(=O)C(C)(C)C)S(=O)(=O)Cl)c(C)cc1C)C2 [Compound 413]
Plant response rating, Pigweed, Palmer [1]: 90 | Plant response rating, Ryegrass, Italian [2]: 20 | Plant response rating, Soybean (soybean (Glycine max) [3]): 50 | Plant response rating, Wheat [4]: 0 | Soybean plant response rating (soybean (Glycine max) [5]; 31 g ai/ha, postemergence): 80 | Plant response rating, Soybean (soybean (Glycine max) [5]; Postemergence, 125 g ai/ha, 10 days): 80 | Plant response rating, Rice (0 to 100 scale, 0 is no effect, 100 is complete control) (rice (Oryza sativa)): 0
